# According to US4536493A, “Saturated aminocyclitol derivatives, their preparation and medicaments containing these compounds” (Baker Aktiengesellschaft, priority 1981, dated 1985):
# Biological target: T1, saccharase from pig small intestinal mucosa (Sus scrofa, UniProt P56729)
# T1 construct: sucrase and isomaltase chains cleaved from one SI precursor
# Assay: Saccharase inhibition test in vitro
# Format: biochemical
# Conditions: solubilised saccharase 0.12 SU, sucrose substrate, 0.1 M sodium maleate buffer pH 6.0, 35° C.; 1 SIU = amount inhibiting two saccharase units by 50%
# Experimental: A saccharase inhibitor unit (SIU) is defined as the amount of inhibitor which inhibits two saccharase units to the extent of 50%. A saccharase unit (SU) is the amount of enzyme which cleaves 1 μmol of sucrose into glucose and fructose in one minute under the test conditions given below. […] To perform the tests, 0.05 ml of a solution of saccharase^(1) which had been set at 0.12 SU was mixed with 0 to 20 μg of inhibitor or 0 to 20 μl of the solution for testing and made up with 0.1 M sodium maleate buffer of pH 6.0 or 0.1 ml. The mixture was equilibrated for 10 minutes at 35° C. and then mixed with 0.1 ml of a 0.05 M solution of sucrose in 0.1 M sodium maleate buffer of pH 6.0 pre-warmed to 35° C. After incubation for 20 minutes at 35° C., the saccharase reaction was stopped by addition of 1 ml of glucose oxidase reagent^(2), and incubation was continued for 30 minutes at 35° C. Thereafter 1 ml of 50% strength H2 SO4 was added and measured at 545 nm against an appropriate blank. For evaluation, the percentage inhibition of the saccharase employed is calculated and, with the aid of a glucose calibration curve, converted from the 50% inhibition point to SIU/g or SIU/liter. (1) Solubilised saccharase from pig small intestinal mucosa according to B. Borgstrom, A. Dahlquist, Acta Chem. Scand. 12, (1958), page 1997. Diluted with 0.1 M sodium maleate buffer of pH 6.0 to the appropriate SU content. (2) The glucose oxidase reagent is prepared by dissolving 2 mg of glucose oxidase (Boehringer No. 15423) in 100 ml of 0.565 M tris-HCl buffer of pH 7.0 and subsequently adding 1 ml of detergent solution (2 g of Triton X 100+8 g of 95% strength ethanol AR), 1 ml of dianisidine solution (260 mg of o-dianisidine 0.2 HCl in 20 ml of H2 O) and 0.5 ml of 0.1% strength aqueous peroxidase solution (Boehringer No. 15302).
# T1 sequence (P56729 with tags, fused parts or gaps): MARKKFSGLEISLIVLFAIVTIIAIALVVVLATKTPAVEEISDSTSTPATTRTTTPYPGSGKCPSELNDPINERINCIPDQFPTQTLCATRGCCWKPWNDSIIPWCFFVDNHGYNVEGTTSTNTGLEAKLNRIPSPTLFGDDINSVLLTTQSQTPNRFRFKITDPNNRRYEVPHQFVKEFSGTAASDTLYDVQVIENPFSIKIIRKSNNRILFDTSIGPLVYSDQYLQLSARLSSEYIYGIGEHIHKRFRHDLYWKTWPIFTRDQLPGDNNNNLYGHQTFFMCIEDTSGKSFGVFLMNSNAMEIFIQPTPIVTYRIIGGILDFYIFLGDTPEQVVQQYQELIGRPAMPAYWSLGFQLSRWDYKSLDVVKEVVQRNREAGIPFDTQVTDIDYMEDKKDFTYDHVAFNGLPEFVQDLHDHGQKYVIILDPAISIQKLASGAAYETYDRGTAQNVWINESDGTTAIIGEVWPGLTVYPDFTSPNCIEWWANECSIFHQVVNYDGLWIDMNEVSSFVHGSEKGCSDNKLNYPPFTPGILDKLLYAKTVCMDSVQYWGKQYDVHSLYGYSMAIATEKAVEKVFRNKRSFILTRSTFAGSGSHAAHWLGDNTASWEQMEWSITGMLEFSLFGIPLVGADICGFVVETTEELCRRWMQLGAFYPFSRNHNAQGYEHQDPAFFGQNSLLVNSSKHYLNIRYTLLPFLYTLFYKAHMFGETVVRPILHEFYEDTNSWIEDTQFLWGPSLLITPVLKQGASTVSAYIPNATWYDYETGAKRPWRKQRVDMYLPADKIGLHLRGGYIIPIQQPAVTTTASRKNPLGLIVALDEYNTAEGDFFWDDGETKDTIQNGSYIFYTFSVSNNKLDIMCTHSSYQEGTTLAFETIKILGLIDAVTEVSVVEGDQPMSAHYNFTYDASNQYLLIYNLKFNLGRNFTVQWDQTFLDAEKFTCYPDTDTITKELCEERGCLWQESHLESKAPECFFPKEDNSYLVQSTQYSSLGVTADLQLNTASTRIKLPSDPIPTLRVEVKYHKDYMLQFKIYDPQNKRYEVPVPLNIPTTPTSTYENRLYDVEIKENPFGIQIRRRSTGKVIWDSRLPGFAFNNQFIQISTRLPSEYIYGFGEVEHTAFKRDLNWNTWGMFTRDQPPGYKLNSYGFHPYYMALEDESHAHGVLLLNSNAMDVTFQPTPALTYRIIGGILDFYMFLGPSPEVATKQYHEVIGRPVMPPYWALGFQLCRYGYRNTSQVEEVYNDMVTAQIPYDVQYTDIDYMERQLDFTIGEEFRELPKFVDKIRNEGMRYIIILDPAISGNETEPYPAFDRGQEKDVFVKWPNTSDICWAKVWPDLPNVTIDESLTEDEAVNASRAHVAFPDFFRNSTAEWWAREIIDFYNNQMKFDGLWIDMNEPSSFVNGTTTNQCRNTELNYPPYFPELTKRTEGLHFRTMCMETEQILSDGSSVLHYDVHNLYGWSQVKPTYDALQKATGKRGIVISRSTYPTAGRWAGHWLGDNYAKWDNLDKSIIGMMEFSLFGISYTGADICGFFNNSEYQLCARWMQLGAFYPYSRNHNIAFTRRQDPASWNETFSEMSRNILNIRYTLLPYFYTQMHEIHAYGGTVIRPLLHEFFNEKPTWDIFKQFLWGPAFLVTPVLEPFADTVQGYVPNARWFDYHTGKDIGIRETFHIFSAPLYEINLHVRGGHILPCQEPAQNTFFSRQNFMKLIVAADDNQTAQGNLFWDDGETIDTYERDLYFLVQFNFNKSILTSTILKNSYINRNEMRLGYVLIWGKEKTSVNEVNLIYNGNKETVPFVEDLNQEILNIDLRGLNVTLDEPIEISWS
row,Effectiveness in the saccharase inhibition test in vitro (saccharase inhibitor units per g),SMILES
1,38 850 SIU/g,COC1O[C@H](C)[C@@H](N[C@H]2C=C(CO)[C@@H](O)[C@H](O)[C@H]2O)[C@H](O)[C@H]1O (stereo partly shown)
2,59 829 SIU/g,C[C@H]1O[C@H](O[C@H]2[C@H](O)[C@@H](O)[C@@H](O[C@H]3[C@H](O)[C@@H](O)C(O)O[C@@H]3CO)O[C@@H]2CO)[C@H](O)[C@@H](O)[C@@H]1N[C@H]1C[C@H](CO)[C@@H](O)[C@H](O)[C@H]1O (stereo partly shown) [Example 1]
3,38 850 SIU/g,COC1O[C@H](C)[C@@H](N[C@H]2C[C@H](CO)[C@@H](O)[C@H](O)[C@H]2O)[C@H](O)[C@H]1O (stereo partly shown) [Example 2]
4,77 700 SIU/g,C[C@H]1O[C@H](O[C@H]2[C@H](O)[C@@H](O)[C@@H](O[C@H]3[C@H](O)[C@@H](O)C(O)O[C@@H]3CO)O[C@@H]2CO)[C@H](O)[C@@H](O)[C@@H]1N[C@H]1C=C(CO)[C@@H](O)[C@H](O)[C@H]1O (stereo partly shown) [acarbose]
